Assay results taken from US10399949B2, “NK1 receptor antagonist” (KISSEI PHARMACEUTICAL CO., LTD., priority 2015, dated 2019).

Experiments:
NK1 receptor = target: T1, NK1 receptor (Meriones unguiculatus, UniProt Q5DUB1); assay: Effect on foot-tapping induced by NK1 receptor agonist GR73632 in gerbil; type: in vivo; conditions: male gerbil; 0.3 mg/kg from the jugular vein; GR73632 into the cerebral ventricle after 4 hours; foot-tapping period during 30 minutes
T1 construct: from tissue; host or cells: living male gerbil, central nervous system
T1 sequence (Q5DUB1 whole entry): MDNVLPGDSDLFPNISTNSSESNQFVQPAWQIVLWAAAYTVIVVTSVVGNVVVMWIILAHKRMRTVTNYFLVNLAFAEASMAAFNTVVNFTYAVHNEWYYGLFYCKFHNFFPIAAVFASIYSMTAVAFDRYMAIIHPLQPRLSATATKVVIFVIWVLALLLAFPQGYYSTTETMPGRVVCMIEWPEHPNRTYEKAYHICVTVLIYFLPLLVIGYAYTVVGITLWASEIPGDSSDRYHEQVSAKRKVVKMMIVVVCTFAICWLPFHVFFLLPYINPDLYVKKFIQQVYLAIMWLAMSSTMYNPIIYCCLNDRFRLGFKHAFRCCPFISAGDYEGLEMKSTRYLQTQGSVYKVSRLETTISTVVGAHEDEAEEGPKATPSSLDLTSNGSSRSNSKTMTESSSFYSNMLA
Protocol: (1) Effect on Foot-tapping
The test compound solution was prepared by dissolving the test compound in a vehicle (a mixture of 50% N,N-dimethylacetamide (Wako Pure Chemical Industries), 30% propylene glycol (Wako Pure Chemical Industries), 4% 2-hydroxypropyl-β-cyclodextrin (Wako Pure Chemical Industries) and 16% distilled water).
A male gerbil (Japan SLC) was anesthetized with isoflurane, and 0.3 mg/kg of a test compound was administered from the jugular vein. After 4 hours, GR73632 (5 pmol/5 μL saline), which is an NK1 receptor agonist, was administered into the cerebral ventricle at the part 1 mm lateral to and 4.5 mm below the bregma in the head, under anesthesia with isoflurane. After the administration, the gerbil was moved to an observation cage, and the foot-tapping period during 30 minutes after the recovery of the righting reflex was measured. As a comparative example, aprepitant, which is an NK1 receptor antagonist, was tested in the same manner. The foot-tapping inhibition rate (%) of each test compound was calculated by the following equation. Foot-tapping inhibition rate (%)={1−(Foot-tapping period when test compound was administered)/(Foot-tapping period when solvent was administered)}×100 (2) Measurement of Drug Concentrations
In the table, Ex. No. means the Example number. Inhibition (%) means the foot-tapping inhibition rate, and Conc. […]

human NK1 receptor = target: T2, human NK1 receptor (Homo sapiens, UniProt P25103); assay: Affinity for human NK1 receptor (125I-substance P receptor binding test, membrane fraction); conditions: membrane fraction of human NK1 receptor-expressing 293T cells, room temperature 60 minutes, read-out: pIC50 (inverse logarithm of the concentration required for 50% inhibition of 125I-substance P binding) (converted)
T2 construct: expressed in transfected cells; host or cells: 293T cells (RIKEN), transient transfection with pcDNA3.1(-) plasmid
T2 sequence (P25103 whole entry): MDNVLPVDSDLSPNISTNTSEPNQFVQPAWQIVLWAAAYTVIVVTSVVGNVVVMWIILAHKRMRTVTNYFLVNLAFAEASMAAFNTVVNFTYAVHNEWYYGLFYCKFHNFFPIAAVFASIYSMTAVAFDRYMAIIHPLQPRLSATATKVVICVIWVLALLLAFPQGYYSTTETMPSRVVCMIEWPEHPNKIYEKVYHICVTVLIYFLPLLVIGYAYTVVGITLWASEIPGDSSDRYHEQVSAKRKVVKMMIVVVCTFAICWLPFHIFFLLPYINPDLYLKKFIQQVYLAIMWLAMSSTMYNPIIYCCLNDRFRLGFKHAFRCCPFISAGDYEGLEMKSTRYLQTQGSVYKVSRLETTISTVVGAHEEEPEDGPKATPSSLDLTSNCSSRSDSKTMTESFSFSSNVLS
Protocol: Affinity for Human NK1 Receptor
(3) Measurement of Binding Affinity to Human NK1 Receptor
(3-1) Preparation of Membrane Fraction from Human NK1 Receptor-Expressing Cells
Human NK1 receptor-expressing cells were prepared in a 175 cm^2 culture flask (Nippon Becton Dickinson). The formation of a complex of the human NK1 receptor expression plasmid and Lipofectamine 2000 was performed by calculating the culture area ratio and increasing the scale of the method described in the above 2-4 by the ratio. The human NK1 receptor-expressing cells were collected in a buffer solution for the membrane fraction preparation (50 mM Tris (Wako Pure Chemical), 120 mM sodium chloride (Wako Pure Chemical Industries), 5 mM potassium chloride (Wako Pure Chemical Industries), 1 mM ethylenediaminetetraacetic acid (Sigma), 0.002 mg/mL chymostatin (Peptide Institute), 0.04 mg/bacitracin (Wako Pure Chemical Industries), 0.005 mg/mL phosphoramidon (Peptide Institute) and 0.5 mM phenylmethylsulfonyl fluoride (Wako Pure Chemical Industries), pH7.4) and centrifuged at 1,880 g for 10 minutes, and the cell sediment was suspended in the buffer solution for the membrane fraction preparation. After freezing and thawing the cells once, the cells were homogenized using a Dounce-type homogenizer (cooled on ice, 1000 rpm, 20 times). The homogenized cell suspension was centrifuged at 20,000 rpm for 10 minutes, and the supernatant was removed to obtain cell sediment. The cell sediment was suspended again in the buffer solution for the membrane fraction preparation and homogenized using a Dounce-type homogenizer (cooled on ice, 1000 rpm, 30 times). The cell suspension was centrifuged at 20,000 rpm for 10 minutes, and the supernatant was removed to obtain cell sediment. The same homogenization and centrifugation were repeated again, and final cell sediment was obtained. The final cell sediment was suspended in a buffer solution for the receptor binding test (50 mM Tris (Wako Pure Chemical Industries), 3 mM manganese chloride (Wako Pure Chemical Industries), 0.002 mg/mL chymostatin (Peptide Institute), 0.04 mg/bacitracin (Wako Pure Chemical Industries) and 0.02% bovine serum albumin (Sigma), pH 7.4), and the protein concentration was measured using BCA Protein Assay Kit (Pierce).
(3-2) Receptor Binding Test
The buffer solution for the receptor binding test was dispensed to the wells of a 96-well assay plate (Greiner) at 22.5 μL/well. DMSO solutions of a test compound, which were prepared at an 80-time higher concentration using 100% dimethyl sulfoxide (DMSO), were added to the wells at 2.5 μL/well (final concentrations of 1 nM to 100 nM), and the solutions were mixed. As a radiolabeled ligand, ^125I-substance P (Substance P, [^125I]Tyr^8-, PerkinElmer) was used. ^125I-substance P was diluted with the buffer solution for the receptor binding test to a concentration resulting in […] and added to the 96-well assay plate, and the solutions were mixed. The membrane fraction prepared from the human NK1 receptor-expressing cells was diluted with the buffer solution for the receptor binding test to a concentration resulting in 8 to 10 μg/well, suspended until the suspension became in such a homogenous state that the suspension could flow through a 27G injection needle smoothly and then added to the 96-well assay plate at 150 μL/well. Then, the plate was incubated at room temperature for 60 minutes while shaking the plate. […]

Row | Inhibition(%) (foot-tapping inhibition rate) (NK1 receptor) | IC50 (human NK1 receptor) | Compound
1 | 100% | 0.851 nM | Cc1cc(F)ccc1[C@H]1CN(C[C@H]2CC[C@H](CC(=O)O)CC2)CCN1C(=O)N(C)[C@H](C)c1cc(C(F)(F)F)cc(C(F)(F)F)c1 [Example 5, trans-{4-[(S)-4-{[(R)-1-(3,5-Bistrifluoromethylphenyl)ethyl]methylcarbamoyl}-3-(4-fluoro-2-methylphenyl)piperazin-1-ylmethyl]cyclohexyl}acetic acid]
2 | 100% | 0.851 nM | Cc1cc(F)ccc1[C@H]1CN(C[C@H]2CC[C@@H](CC(=O)O)CC2)CCN1C(=O)N(C)[C@H](C)c1cc(C(F)(F)F)cc(C(F)(F)F)c1 [Example 4, cis-{4-[(S)-4-{[(R)-1-(3,5-Bistrifluoromethylphenyl)ethyl]methylcarbamoyl}-3-(4-fluoro-2-methylphenyl)piperazin-1-ylmethyl]cyclohexyl}acetic acid]
